Key:
Type in all cases: in vivo, mouse (C57BL/6J male, 60% HFD DIO)
[1] = Example 2: body weight and body weight change rate, combined administration of HTD1801 and dapagliflozin or empagliflozin in DIO obesity model; settings: HTD1801 250 mpk, dapagliflozin 10 mpk, empagliflozin 15 mpk p.o. QD, semaglutide 10 nmol/kg s.c. Q3D
Excerpt: (§1) After 5-6-week-old C57BL/6J male mice were acclimatized for 1 week, the weight of each mouse was weighed, and the mice were randomly divided into a control group and a model group by taking the weight as a main index, where 12 mice in the control group were fed with common feed (CD), and the mice in the remaining model group were fed with 60% high-fat feed (60% HFD) for 10-12 weeks to construct a DIO obesity model, with the average body weight being not less than 40 g. The mice fed with 60% HFD were grabbed and acclimatized with a solvent for 3 days, where the acclimatization with a solvent was performed by oral gavage of 0.5% CMC-Na, once daily.
(§2) The food intake, the body weight, the body fat ratio, and the insulin level of the mice were respectively measured, followed by fasting blood glucose level, and the mice were randomly grouped according to Table 12 by taking the body weight as an index, and the remaining ungrouped mice were euthanized. After grouping, each group of mice was administered according to Table 12, the day of administration was defined as DO, and the administration volume of each drug was determined based on the results obtained by the calculation of 5 μL/g× mouse body weight (g).
(§3) For the combined administration group, the administration sequence and the administration time were kept consistent at each administration. The mice were continuously fed with high-fat feed during the administration period until the administration was finished. During administration, 1 food intake was measured per week (difference in feed weights at an interval of 24 h was measured); each group of mice was weighed once daily; blood was collected from the tail tip on day 16 and day 30, respectively, so as to measure fasting blood glucose levels once (blood was collected after fasting from 9:00 am to 3:[…]); on day 24 of administration (D23), the body fat ratio and the lean mass of each group of mice were measured by MRI (the measurement period was kept consistent with that before grouping); after 25 days of administration intervention (day 24), each group of mice was fasted for 6 h and subjected to OGTT (0 min, 15 min, 30 min, 60 min, 90 min, 120 min) to detect their blood glucose levels; after 29 days of administration intervention (day 28), each group of mice was fasted for 6 h and subjected to OGTT (0 min, 15 min, 30 min, 60 min, 90 min, 120 min), and meanwhile subjected to blood sampling via submaxillary vein (0 min, 15 min, 30 min, about 30 μL of blood sampled each time), and then the blood plasma was separated for detecting the insulin level by ELISA, where the separated blood plasma was more than 10 μL; the next day (D30) at the end of administration was set as the test endpoint, and the mice were fasted for 6 h in the morning and subjected to fasting blood glucose level measurement; subsequently, the mice were euthanized with CO2, blood was collected from the heart of each mouse for analysis, and each group of mice was dissected; the liver and subcutaneous, epididymal and mesenteric fat was collected, photographed and weighed, respectively.

[2] = Example 2: lean mass by MRI on day 23
Excerpt: as §1, §2, §3
The body weight, the lean mass and the lean ratio of each animal in groups G1 to G8 were measured on day 23 and averaged for each group, and the results are shown in Table 16 below, and FIGS. 23 and 24.

[3] = Example 2: body fat mass by MRI on day 23
Excerpt: as §1, §2, §3
The body weight, the body fat mass and the body fat ratio of each animal in groups G1 to G8 were measured on day 23 and averaged for each group, and the results are shown in Table 15 below, and FIGS. 21 and 22.

[4] = mean, day 23, HTD1801 250 mpk, dapagliflozin 10 mpk, empagliflozin 15 mpk p.o. QD

COc1ccc2cc3[n+](cc2c1OC)CCc1cc2c(cc1-3)OCO2.C[C@H](CCC(=O)[O-])[C@H]1CC[C@H]2[C@@H]3[C@@H](O)C[C@@H]4C[C@H](O)CC[C@]4(C)[C@H]3CC[C@]12C [HTD1801, berberine ursodeoxycholate]
body weight change / weight loss effect (in words) [1]: close to that of the semaglutide group, with a uniform and sustained decrease throughout the administration period
Body weight (mean) ([1]; day 0 (baseline)): 45.3 g
Body weight change rate ([1]; day 0 (baseline)): 0.0%
Body weight (mean) ([1]; day 1): 44.5 g
Body weight change rate ([1]; day 1): −1.6%
Body weight (mean) ([1]; day 2): 44.1 g
Body weight change rate ([1]; day 2): −2.5%
Body weight (mean) ([1]; day 3): 44.1 g
Body weight change rate ([1]; day 3): −2.5%
Body weight (mean) ([1]; day 4): 43.6 g
Body weight change rate ([1]; day 4): −3.7%
Body weight (mean) ([1]; day 5): 43.1 g
Body weight change rate ([1]; day 5): −4.9%
Body weight (mean) ([1]; day 6): 42.7 g
Body weight change rate ([1]; day 6): −5.7%
Body weight (mean) ([1]; day 7): 42.7 g
Body weight change rate ([1]; day 7): −5.7%
Body weight (mean) ([1]; day 8): 42.5 g
Body weight change rate ([1]; day 8): −6.2%
Body weight (mean) ([1]; day 9): 41.9 g
Body weight change rate ([1]; day 9): −7.5%
Body weight (mean) ([1]; day 10): 41.9 g
Body weight change rate ([1]; day 10): −7.4%
Body weight (mean) ([1]; day 11): 41.7 g
Body weight change rate ([1]; day 11): −7.9%
Body weight (mean) ([1]; day 12): 41.3 g
Body weight change rate ([1]; day 12): −8.7%
Body weight (mean) ([1]; day 13): 40.3 g
Body weight change rate ([1]; day 13): −10.9%
Body weight (mean) ([1]; day 14): 40.5 g
Body weight change rate ([1]; day 14): −10.7%
Body weight (mean) ([1]; day 15): 40.3 g
Body weight change rate ([1]; day 15): −11.1%
Body weight (mean) ([1]; day 16): 40.2 g
Body weight change rate ([1]; day 16): −11.2%
Body weight (mean) ([1]; day 17): 39.9 g
Body weight change rate ([1]; day 17): −11.8%
Body weight (mean) ([1]; day 18): 39.7 g
Body weight change rate ([1]; day 18): −12.3%
Body weight (mean) ([1]; day 19): 39.4 g
Body weight change rate ([1]; day 19): −12.8%
Body weight (mean) ([1]; day 20): 39.3 g
Body weight change rate ([1]; day 20): −13.2%
Body weight (mean) ([1]; day 21): 39.1 g
Body weight change rate ([1]; day 21): −13.5%
Body weight (mean) ([1]; day 22): 39.2 g
Body weight change rate ([1]; day 22): −13.4%
Body weight (mean) ([1]; day 23): 38.9 g
Body weight change rate ([1]; day 23): −14.0%
Body weight (mean) ([1]; day 24): 38.2 g
Body weight change rate ([1]; day 24): −15.6%
Body weight (mean) ([1]; day 25): 38.4 g
Body weight change rate ([1]; day 25): −15.1%
Body weight (mean) ([1]; day 26): 38.6 g
Body weight change rate ([1]; day 26): −14.6%
Body weight (mean) ([1]; day 27): 38.7 g
Body weight change rate ([1]; day 27): −14.5%
Body weight (mean) ([1]; day 28): 38.4 g
Body weight change rate ([1]; day 28): −15.1%
Body weight (mean) ([1]; day 29): 37.4 g
Body weight change rate ([1]; day 29): −17.4%
lean ratio (in words) ([2]; day 23, relative to model control group G2): slightly increased
Body weight ([2]; mean, day 23 (Table 16), HTD1801 250 mpk, dapagliflozin 10 mpk, empagliflozin 15 mpk p.o. QD): 38.9 g
Lean (lean mass) [2, 4]: 5.1 g
Lean ratio [2, 4]: 13.0%
body fat mass and body fat ratio (in words) ([3]; day 23, relative to control group G2): significantly decreased
Body weight ([3]; mean, day 23 (Table 15), HTD1801 250 mpk, dapagliflozin 10 mpk, empagliflozin 15 mpk p.o. QD): 38.9 g
Body fat ratio [3, 4]: 44.8%
Fat (body fat mass) [3, 4]: 17.5 g

— patent US20260373165A1, “PHARMACEUTICAL COMBINATIONS AND COMPOSITIONS, AND METHODS OF USE THEREOF” (SHENZHEN HIGHTIDE BIOPHARMACEUTICAL LTD., priority 2022, published 2026)
